Values belong to the compound of their own block, whether it stands above or below them.
Tests used:
[1] = molecular target: T1, Ba/F3 ERBB2-P780_Y781insGSP (Homo sapiens, UniProt P04626, DUP778-780, cells depend on it); assay: Cell viability assay (CellTiter Glo); assay type: cell-based, mouse; settings: 72 hours; 3000 cells per well, 96-well plates; read-out: Cell viability IC50, nM, Ba/F3 ERBB2-P780_Y781insGSP
T1 construct: Ba/F3 cell lines were engineered to express human ERBB2 or EGFR kinases, rendering the cells IL-3 independent
Method: Cells were treated with compounds, and cell viability was measured as a metric of kinase inhibition.
The Ba/F3 cell line is IL-3-dependent mouse cell line derived from the C3H mouse strain. Ba/F3 cell lines were engineered to express human ERBB2 or EGFR kinases, rendering the cells IL-3 independent. The lines were generated via retroviral transduction utilizing a Moloney murine leukemia virus (MMLV) promoter, and constructs are stably integrated into the cell genome.
Similarly, Ba/F3 cell lines engineered to express EGFR, ERBB2, or ERBB2 mutants were grown, harvested, counted and seeded at 3000 cells per well in 96-well plates for the data sets shown in Tables B3-B4, and seeded at 300 cells per well in 384-well plates for the data set shown in Table B5. A subset of wells contained media only (low control, “LC”).
Table B2 provides the growth media and number of cells seeded per well for the each cell line.
Compounds were dissolved in DMSO and serially diluted. Serially-diluted compound or a DMSO only control (high control, “HC”) was added to the plated cells in each well. […] The final proportion of DMSO never exceeded 0.1%.
Plates were placed in a 37° C., 5% CO2 incubator for 72 hours. Plates were then removed from the incubator and equilibrated for 15 minutes at room temperature. 40 IA of CellTiter Glo reagent (Promega) was added to measure the relative level of metabolically active cells by quantifying intracellular ATP concentrations. Plates were incubated for 30 minutes at room temperature, and luminescence was measured. […] Graphical curves were fitted using a nonlinear regression model with a sigmoidal dose response.

[2] = molecular target: T2, phosphorylated ERBB2 (pERBB2) (Homo sapiens, UniProt P04626); assay: Detection of phosphorylated ERBB2 (pERBB2) by ELISA in BT-474 cells; assay type: cell-based; settings: four hours incubation with compound, OD 450 nm
T2 construct: endogenous in cells; host or cells: BT-474
How it was run: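 BT-474 cells were treated for 4 h at 37 °C with four-fold compound dilutions from 10 μM to 0.01 nM final, then lysed. Phospho-ERBB2 in the lysates was measured by ELISA with TMB read-out at 450 nm. Relative activity was normalised between cell-free wells and 0.1% DMSO-treated cells.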

[3] = molecular target: T3, Ba/F3 ERBB2-L869R (Homo sapiens, UniProt P04626, L869R, cells depend on it); assay: Cell viability assay (CellTiter Glo); assay type: cell-based, mouse; settings: 72 hours; 3000 cells per well, 96-well plates; read-out: Cell viability IC50, nM, Ba/F3 ERBB2-L869R
T3 construct: Ba/F3 cell lines were engineered to express human ERBB2 or EGFR kinases, rendering the cells IL-3 independent
How it was run: (§1)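 Murine Ba/F3 cells made IL-3-independent by retroviral human EGFR or ERBB2 were seeded at 3000 or 300 cells per well and exposed to serially diluted compound (DMSO ≤0.1%) for 72 hours at 37° C, 5% CO2. CellTiter Glo luminescence was normalised to DMSO and media-only controls and fitted to a sigmoidal dose-response.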

[4] = molecular target: T4, Ba/F3 ERBB2 wt (Homo sapiens, UniProt P04626); assay: Cell viability assay (CellTiter Glo); assay type: cell-based, mouse; settings: 72 hours; 3000 cells per well, 96-well plates; read-out: Cell viability IC50, nM, Ba/F3 ERBB2 wt
T4 construct: Ba/F3 cell lines were engineered to express human ERBB2 or EGFR kinases, rendering the cells IL-3 independent
T4 sequence (P04626 whole entry, change not shown): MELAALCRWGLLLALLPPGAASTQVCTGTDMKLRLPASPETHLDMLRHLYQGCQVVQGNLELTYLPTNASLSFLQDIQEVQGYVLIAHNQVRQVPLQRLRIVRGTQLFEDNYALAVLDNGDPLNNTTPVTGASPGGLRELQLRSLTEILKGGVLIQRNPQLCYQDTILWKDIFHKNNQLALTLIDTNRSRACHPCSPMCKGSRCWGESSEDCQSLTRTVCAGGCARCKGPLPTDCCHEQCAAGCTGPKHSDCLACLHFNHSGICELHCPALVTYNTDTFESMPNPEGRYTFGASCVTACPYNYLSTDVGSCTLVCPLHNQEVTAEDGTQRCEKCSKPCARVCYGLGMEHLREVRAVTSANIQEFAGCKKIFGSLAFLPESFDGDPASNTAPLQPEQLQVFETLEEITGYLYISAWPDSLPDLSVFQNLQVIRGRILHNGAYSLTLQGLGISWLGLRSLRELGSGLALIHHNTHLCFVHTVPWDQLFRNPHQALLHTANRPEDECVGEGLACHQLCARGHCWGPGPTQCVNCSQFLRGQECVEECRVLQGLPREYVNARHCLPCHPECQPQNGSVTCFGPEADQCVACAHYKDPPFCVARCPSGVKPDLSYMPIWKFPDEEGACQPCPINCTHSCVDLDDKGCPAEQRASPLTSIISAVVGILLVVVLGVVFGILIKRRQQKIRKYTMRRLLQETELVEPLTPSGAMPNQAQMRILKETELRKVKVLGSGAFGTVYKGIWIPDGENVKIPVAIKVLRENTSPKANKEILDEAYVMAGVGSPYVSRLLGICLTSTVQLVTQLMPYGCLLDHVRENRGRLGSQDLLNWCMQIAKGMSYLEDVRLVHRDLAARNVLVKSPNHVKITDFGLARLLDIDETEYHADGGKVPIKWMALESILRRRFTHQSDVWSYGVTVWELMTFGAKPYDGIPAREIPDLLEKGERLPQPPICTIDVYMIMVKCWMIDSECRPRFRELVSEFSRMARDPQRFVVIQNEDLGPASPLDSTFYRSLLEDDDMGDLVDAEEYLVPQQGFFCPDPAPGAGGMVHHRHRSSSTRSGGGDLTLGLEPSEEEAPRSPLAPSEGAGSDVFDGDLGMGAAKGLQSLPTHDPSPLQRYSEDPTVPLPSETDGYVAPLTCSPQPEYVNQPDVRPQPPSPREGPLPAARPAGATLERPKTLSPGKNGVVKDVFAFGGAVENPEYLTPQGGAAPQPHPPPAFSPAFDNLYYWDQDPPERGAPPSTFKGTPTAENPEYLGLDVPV
How it was run: as §1

[5] = molecular target: T5, Ba/F3 ERBB2-V777L (Homo sapiens, UniProt P04626, V777L, cells depend on it); assay: Cell viability assay (CellTiter Glo); assay type: cell-based, mouse; settings: 72 hours; 3000 cells per well, 96-well plates; read-out: Cell viability IC50, nM, Ba/F3 ERBB2-V777L
T5 construct: Ba/F3 cell lines were engineered to express human ERBB2 or EGFR kinases, rendering the cells IL-3 independent
T5 sequence (P04626 whole entry V777L): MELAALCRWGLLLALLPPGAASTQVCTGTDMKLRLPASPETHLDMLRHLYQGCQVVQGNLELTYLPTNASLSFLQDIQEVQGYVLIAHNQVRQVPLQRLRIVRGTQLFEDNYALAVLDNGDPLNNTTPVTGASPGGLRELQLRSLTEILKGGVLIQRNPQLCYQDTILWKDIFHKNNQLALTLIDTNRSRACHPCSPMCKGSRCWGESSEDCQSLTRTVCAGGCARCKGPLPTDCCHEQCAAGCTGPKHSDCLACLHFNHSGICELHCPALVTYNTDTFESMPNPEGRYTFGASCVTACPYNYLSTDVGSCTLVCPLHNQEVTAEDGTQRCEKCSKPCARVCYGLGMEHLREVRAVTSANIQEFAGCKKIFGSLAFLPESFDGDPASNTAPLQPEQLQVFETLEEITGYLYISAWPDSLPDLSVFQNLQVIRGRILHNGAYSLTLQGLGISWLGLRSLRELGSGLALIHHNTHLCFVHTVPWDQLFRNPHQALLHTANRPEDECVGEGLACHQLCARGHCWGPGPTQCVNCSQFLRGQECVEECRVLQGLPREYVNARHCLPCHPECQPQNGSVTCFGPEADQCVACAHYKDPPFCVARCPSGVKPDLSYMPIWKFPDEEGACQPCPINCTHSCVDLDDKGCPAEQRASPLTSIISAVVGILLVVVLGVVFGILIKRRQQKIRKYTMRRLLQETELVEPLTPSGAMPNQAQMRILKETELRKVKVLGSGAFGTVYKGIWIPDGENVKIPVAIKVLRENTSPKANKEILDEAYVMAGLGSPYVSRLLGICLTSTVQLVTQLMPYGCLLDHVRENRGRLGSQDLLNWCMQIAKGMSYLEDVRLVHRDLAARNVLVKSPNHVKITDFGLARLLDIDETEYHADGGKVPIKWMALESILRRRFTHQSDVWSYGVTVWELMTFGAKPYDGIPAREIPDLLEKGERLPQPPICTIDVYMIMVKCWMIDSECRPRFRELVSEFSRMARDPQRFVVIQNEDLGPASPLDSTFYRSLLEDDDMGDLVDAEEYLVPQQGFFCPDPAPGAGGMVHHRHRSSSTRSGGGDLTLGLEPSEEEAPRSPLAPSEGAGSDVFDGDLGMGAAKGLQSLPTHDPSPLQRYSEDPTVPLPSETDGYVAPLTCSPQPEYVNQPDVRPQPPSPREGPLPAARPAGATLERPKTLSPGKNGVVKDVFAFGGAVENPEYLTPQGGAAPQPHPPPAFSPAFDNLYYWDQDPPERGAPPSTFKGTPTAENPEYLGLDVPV
How it was run: as §1

[6] = molecular target: T6, Ba/F3 ERBB2 A775_G776insYVMA (Homo sapiens, UniProt P04626, DUP772-775, cells depend on it); assay: Cell viability assay (CellTiter Glo); assay type: cell-based, mouse; settings: 72 hours; 3000 cells per well, 96-well plates (Tables B3-B4); read-out: Cell viability IC50, nM, Ba/F3 ERBB2 A775_G776insYVMA
T6 construct: Ba/F3 cell lines were engineered to express human ERBB2 or EGFR kinases, rendering the cells IL-3 independent
How it was run: as §1

[7] = molecular target: T7, Ba/F3 ERBB2-G776VC (Homo sapiens, UniProt P04626, DELINS776-776VC, cells depend on it); assay: Cell viability assay (CellTiter Glo); assay type: cell-based, mouse; settings: 72 hours; 3000 cells per well, 96-well plates; read-out: Cell viability IC50, nM, Ba/F3 ERBB2-G776VC
T7 construct: Ba/F3 cell lines were engineered to express human ERBB2 or EGFR kinases, rendering the cells IL-3 independent
T7 sequence (P04626 with tags, fused parts or gaps DELINS776-776VC): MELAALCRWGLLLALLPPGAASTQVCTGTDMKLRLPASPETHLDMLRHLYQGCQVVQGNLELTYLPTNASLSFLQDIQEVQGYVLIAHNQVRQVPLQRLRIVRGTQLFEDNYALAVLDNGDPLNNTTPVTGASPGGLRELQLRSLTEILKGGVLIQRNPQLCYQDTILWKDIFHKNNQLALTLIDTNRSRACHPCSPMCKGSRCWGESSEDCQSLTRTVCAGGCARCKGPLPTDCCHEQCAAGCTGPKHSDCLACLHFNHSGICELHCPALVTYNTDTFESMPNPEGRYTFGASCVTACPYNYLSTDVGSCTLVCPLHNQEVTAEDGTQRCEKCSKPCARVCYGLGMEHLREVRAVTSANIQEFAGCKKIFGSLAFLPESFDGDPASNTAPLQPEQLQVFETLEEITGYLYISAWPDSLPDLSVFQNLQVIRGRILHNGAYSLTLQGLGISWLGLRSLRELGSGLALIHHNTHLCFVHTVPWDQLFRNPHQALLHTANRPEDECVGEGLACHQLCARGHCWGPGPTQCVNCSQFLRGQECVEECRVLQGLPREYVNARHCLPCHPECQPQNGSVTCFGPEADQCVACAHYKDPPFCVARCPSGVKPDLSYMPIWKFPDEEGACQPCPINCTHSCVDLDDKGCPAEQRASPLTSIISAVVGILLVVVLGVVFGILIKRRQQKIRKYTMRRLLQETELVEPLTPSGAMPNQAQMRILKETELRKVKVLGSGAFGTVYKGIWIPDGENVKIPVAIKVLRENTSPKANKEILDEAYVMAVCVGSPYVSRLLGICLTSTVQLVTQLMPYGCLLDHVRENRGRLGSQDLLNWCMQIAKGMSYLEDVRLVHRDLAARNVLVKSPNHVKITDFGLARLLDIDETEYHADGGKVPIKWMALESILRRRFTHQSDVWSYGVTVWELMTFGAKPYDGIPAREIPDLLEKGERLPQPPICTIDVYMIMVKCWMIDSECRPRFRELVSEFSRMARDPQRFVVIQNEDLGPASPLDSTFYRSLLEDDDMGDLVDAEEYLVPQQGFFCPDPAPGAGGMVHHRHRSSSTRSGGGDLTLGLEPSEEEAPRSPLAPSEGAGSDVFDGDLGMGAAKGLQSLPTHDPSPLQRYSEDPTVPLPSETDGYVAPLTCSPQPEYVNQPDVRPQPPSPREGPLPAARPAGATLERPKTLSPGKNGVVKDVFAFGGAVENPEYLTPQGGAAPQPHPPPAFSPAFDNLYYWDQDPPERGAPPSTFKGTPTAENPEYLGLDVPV
How it was run: as §1

[8] = molecular target: T8, Ba/F3 ERBB2-T798M (Homo sapiens, UniProt P04626, T798M, cells depend on it); assay: Cell viability assay (CellTiter Glo); assay type: cell-based, mouse; settings: 72 hours; 3000 cells per well, 96-well plates; read-out: Cell viability IC50, nM, Ba/F3 ERBB2-T798M
T8 construct: Ba/F3 cell lines were engineered to express human ERBB2 or EGFR kinases, rendering the cells IL-3 independent
How it was run: as §1

[9] = molecular target: T9, Ba/F3 ERBB2-L755S (Homo sapiens, UniProt P04626, L755S, cells depend on it); assay: Cell viability assay (CellTiter Glo); assay type: cell-based, mouse; settings: 72 hours; 3000 cells per well, 96-well plates; read-out: Cell viability IC50, nM, Ba/F3 ERBB2-L755S
T9 construct: Ba/F3 cell lines were engineered to express human ERBB2 or EGFR kinases, rendering the cells IL-3 independent
T9 sequence (P04626 whole entry L755S): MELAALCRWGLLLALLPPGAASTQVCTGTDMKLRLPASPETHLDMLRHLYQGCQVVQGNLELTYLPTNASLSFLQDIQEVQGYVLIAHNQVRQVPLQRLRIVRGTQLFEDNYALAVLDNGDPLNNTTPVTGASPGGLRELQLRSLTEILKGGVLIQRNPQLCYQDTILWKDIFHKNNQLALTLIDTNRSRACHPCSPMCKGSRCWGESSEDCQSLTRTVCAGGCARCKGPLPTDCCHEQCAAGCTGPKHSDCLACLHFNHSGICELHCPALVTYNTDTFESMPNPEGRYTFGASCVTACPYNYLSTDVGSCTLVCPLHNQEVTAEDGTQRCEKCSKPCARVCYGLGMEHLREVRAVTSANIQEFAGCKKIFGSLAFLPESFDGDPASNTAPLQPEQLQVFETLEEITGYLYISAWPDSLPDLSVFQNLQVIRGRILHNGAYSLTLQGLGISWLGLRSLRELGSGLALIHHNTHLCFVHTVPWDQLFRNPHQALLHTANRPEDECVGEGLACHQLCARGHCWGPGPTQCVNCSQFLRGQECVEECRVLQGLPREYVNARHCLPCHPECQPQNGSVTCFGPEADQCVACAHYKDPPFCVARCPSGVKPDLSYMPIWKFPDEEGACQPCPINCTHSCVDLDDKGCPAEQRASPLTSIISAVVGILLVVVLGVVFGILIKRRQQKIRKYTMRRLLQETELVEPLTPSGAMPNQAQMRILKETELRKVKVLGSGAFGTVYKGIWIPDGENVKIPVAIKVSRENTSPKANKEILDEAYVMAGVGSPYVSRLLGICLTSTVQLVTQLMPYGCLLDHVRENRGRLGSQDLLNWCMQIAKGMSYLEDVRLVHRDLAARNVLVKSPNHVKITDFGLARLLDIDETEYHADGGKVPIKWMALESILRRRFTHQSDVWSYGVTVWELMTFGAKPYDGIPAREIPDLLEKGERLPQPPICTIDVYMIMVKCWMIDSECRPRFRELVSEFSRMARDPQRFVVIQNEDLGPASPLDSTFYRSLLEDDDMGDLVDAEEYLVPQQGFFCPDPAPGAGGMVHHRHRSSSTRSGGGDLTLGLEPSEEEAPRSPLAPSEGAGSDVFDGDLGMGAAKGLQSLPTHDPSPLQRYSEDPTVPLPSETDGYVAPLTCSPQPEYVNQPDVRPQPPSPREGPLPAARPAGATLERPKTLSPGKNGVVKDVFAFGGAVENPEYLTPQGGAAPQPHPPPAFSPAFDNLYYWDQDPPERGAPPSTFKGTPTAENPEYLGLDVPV
How it was run: as §1

IC50 [2]: 7.05 nM
Compound: CC#CC(=O)Nc1cc2c(Nc3ccc(Oc4ccn5ncnc5c4)c(C)c3)ncnc2cc1OCCN(C)C [Compound 150, N-[7-[2-(dimethylamino)ethoxy]-4-[(3-methyl-4-[[1,2,4]triazolo[1,5-a]pyridin-7-yloxy]phenyl)amino]quinazolin-6-yl]but-2-ynamide]
GI50 [1]: 2.63 nM | GI50 [3]: 4.31 nM | GI50 [4]: 2.12 nM | GI50 [5]: 1.73 nM | GI50 [6]: 8.42 nM | GI50 [7]: 13.6 nM | GI50 [8]: 56.9 nM | GI50 [9]: 11.4 nM

IC50 [2]: 23.1 nM
Compound: Cc1cc(Nc2ncnc3ccc(NC4=NC(C)(C)CO4)cc23)ccc1Oc1ccn2ncnc2c1 [Tucatinib, tucatinib, reference compound]
GI50 [1]: 25.3 nM | GI50 [3]: 63.5 nM | GI50 [4]: 26.5 nM | GI50 [5]: 11 nM | GI50 [6]: 356 nM | GI50 [7]: 193 nM | GI50 [8]: 1370 nM | GI50 [9]: 228 nM

IC50 [2]: 10.3 nM
Compound: CC#CC(=O)Nc1ccc2ncnc(Nc3ccc(Oc4ccn5ncnc5c4)c(C)c3)c2c1 [Compound 1, N-[4-[(3-methyl-4-[[1,2,4]triazolo[1,5-a]pyridin-7-yloxy]phenyl)amino]quinazolin-6-yl]but-2-ynamide]
GI50 [1]: 0.65 nM | GI50 [3]: < 1 nM | GI50 [4]: 1.5 nM | GI50 [5]: < 1 nM | GI50 [6]: 4.4 nM | GI50 [7]: 2.6 nM | GI50 [8]: 15 nM | GI50 [9]: ~1 nM

Source: patent US20230265098A1, “ALKYNE QUINAZOLINE DERIVATIVES AS INHIBITORS OF ERBB2” (EnLiven Therapeutics, Inc., priority 2020, published 2023)
